Laboratory results: the NIST ThermoML archive (doi:10.1016/j.jct.2014.01.008)
Several values for one entry are separate records, joined by “and”; a condition that tells them apart may be missing. Equal values may be shown once. Numbers after ± are expanded uncertainties.

Columns and labels:
[1] = Solid-liquid equilibrium temperature; conditions: Crystal, visual observation
[2] = Liquid, Falling or rolling sphere viscometry

CCCCCCCCCCCCCCCCCCCC [eicosane]
[1]
Conditions | Solid-liquid equilibrium temperature [K]
21600 kPa | 315.6 ± 0.7
61500 kPa | 325.3 ± 0.7
105500 kPa | 334.8 ± 0.7
153800 kPa | 344.6 ± 0.7
218800 kPa | 355.9 ± 0.7
263800 kPa | 364.3 ± 0.7

[2]
Conditions | viscosity
325.8 K, 6700 kPa | 3.184 ± 0.086 mPa·s and 3.193 ± 0.086 mPa·s
325.8 K, 14400 kPa | 3.511 ± 0.094 mPa·s and 3.528 ± 0.095 mPa·s
325.8 K, 21300 kPa | 3.828 ± 0.1 mPa·s
325.8 K, 22300 kPa | 3.908 ± 0.11 mPa·s
325.8 K, 28700 kPa | 4.25 ± 0.11 mPa·s
325.8 K, 35500 kPa | 4.642 ± 0.12 mPa·s
429.3 K, 5500 kPa | 0.837 ± 0.027 mPa·s
429.3 K, 7400 kPa | 0.858 ± 0.028 mPa·s
429.3 K, 21800 kPa | 1.029 ± 0.034 mPa·s
429.3 K, 41800 kPa | 1.262 ± 0.041 mPa·s
429.3 K, 63000 kPa | 1.498 ± 0.048 mPa·s and 1.523 ± 0.049 mPa·s
429.3 K, 83000 kPa | 1.777 ± 0.057 mPa·s
429.3 K, 103700 kPa | 2.043 ± 0.065 mPa·s
429.3 K, 125000 kPa | 2.351 ± 0.075 mPa·s
429.3 K, 144500 kPa | 2.631 ± 0.083 mPa·s
429.3 K, 144700 kPa | 2.638 ± 0.084 mPa·s
429.3 K, 167900 kPa | 2.988 ± 0.095 mPa·s
429.3 K, 187900 kPa | 3.321 ± 0.11 mPa·s
429.3 K, 208900 kPa | 3.685 ± 0.12 mPa·s
429.3 K, 228600 kPa | 4.04 ± 0.13 mPa·s
429.3 K, 243100 kPa | 4.327 ± 0.14 mPa·s
533.8 K, 6200 kPa | 0.346 ± 0.011 mPa·s
533.8 K, 22900 kPa | 0.425 ± 0.014 mPa·s
533.8 K, 43300 kPa | 0.541 ± 0.017 mPa·s
533.8 K, 43500 kPa | 0.541 ± 0.017 mPa·s
533.8 K, 63200 kPa | 0.647 ± 0.021 mPa·s
533.8 K, 84300 kPa | 0.75 ± 0.024 mPa·s
533.8 K, 104400 kPa | 0.861 ± 0.028 mPa·s
533.8 K, 125000 kPa | 0.977 ± 0.032 mPa·s
533.8 K, 146100 kPa | 1.097 ± 0.036 mPa·s
533.8 K, 165900 kPa | 1.199 ± 0.039 mPa·s
533.8 K, 187300 kPa | 1.341 ± 0.044 mPa·s
533.8 K, 208200 kPa | 1.444 ± 0.047 mPa·s
533.8 K, 228800 kPa | 1.556 ± 0.051 mPa·s

CCCCCCCCCCCCCCCC [hexadecane]
[1]
Conditions | Solid-liquid equilibrium temperature [K]
54300 kPa | 303.6 ± 0.7
106300 kPa | 314.5 ± 0.7
158900 kPa | 325 ± 0.7
210600 kPa | 333.9 ± 0.7
267700 kPa | 344.4 ± 0.7

[2]
Conditions | viscosity
303.9 K, 3300 kPa | 2.826 ± 0.08 mPa·s
303.9 K, 7300 kPa | 2.959 ± 0.084 mPa·s
303.9 K, 12900 kPa | 3.184 ± 0.089 mPa·s
303.9 K, 19000 kPa | 3.454 ± 0.098 mPa·s
303.9 K, 26800 kPa | 3.793 ± 0.11 mPa·s
303.9 K, 33600 kPa | 4.107 ± 0.12 mPa·s
325.7 K, 8100 kPa | 1.943 ± 0.059 mPa·s
325.7 K, 8300 kPa | 1.956 ± 0.059 mPa·s
325.7 K, 21500 kPa | 2.263 ± 0.069 mPa·s
325.7 K, 35600 kPa | 2.675 ± 0.082 mPa·s
325.7 K, 49300 kPa | 3.067 ± 0.082 mPa·s
325.7 K, 63600 kPa | 3.55 ± 0.098 mPa·s
325.7 K, 77500 kPa | 4.056 ± 0.11 mPa·s
325.7 K, 91800 kPa | 4.625 ± 0.13 mPa·s
325.7 K, 104100 kPa | 5.179 ± 0.14 mPa·s
325.7 K, 119200 kPa | 5.865 ± 0.16 mPa·s
325.7 K, 122700 kPa | 6.07 ± 0.17 mPa·s
429.1 K, 12800 kPa | 0.582 ± 0.019 mPa·s and 0.586 ± 0.019 mPa·s
429.1 K, 22200 kPa | 0.649 ± 0.036 mPa·s
429.1 K, 22700 kPa | 0.65 ± 0.036 mPa·s
429.1 K, 35800 kPa | 0.742 ± 0.024 mPa·s
429.1 K, 70500 kPa | 1.01 ± 0.034 mPa·s
429.1 K, 91600 kPa | 1.181 ± 0.04 mPa·s
429.1 K, 118800 kPa | 1.405 ± 0.048 mPa·s
429.1 K, 140300 kPa | 1.594 ± 0.05 mPa·s
429.1 K, 167800 kPa | 1.847 ± 0.058 mPa·s
429.1 K, 188000 kPa | 2.046 ± 0.065 mPa·s
429.1 K, 222900 kPa | 2.459 ± 0.078 mPa·s
533.7 K, 14100 kPa | 0.272 ± 0.009 mPa·s
533.7 K, 14300 kPa | 0.276 ± 0.009 mPa·s
533.7 K, 29900 kPa | 0.341 ± 0.011 mPa·s
533.7 K, 30100 kPa | 0.342 ± 0.011 mPa·s
533.7 K, 50400 kPa | 0.43 ± 0.014 mPa·s
533.7 K, 50500 kPa | 0.433 ± 0.014 mPa·s
533.7 K, 77100 kPa | 0.534 ± 0.017 mPa·s
533.7 K, 104600 kPa | 0.642 ± 0.021 mPa·s
533.7 K, 125000 kPa | 0.721 ± 0.023 mPa·s
533.7 K, 152800 kPa | 0.829 ± 0.026 mPa·s
533.7 K, 188400 kPa | 0.983 ± 0.031 mPa·s
533.7 K, 210000 kPa | 1.077 ± 0.035 mPa·s
533.7 K, 226600 kPa | 1.154 ± 0.037 mPa·s

CCCCCCCCCCCCCCCCCC [octadecane]
[1]
Conditions | Solid-liquid equilibrium temperature [K]
59900 kPa | 315.2 ± 0.7
102800 kPa | 324.6 ± 0.7
151000 kPa | 334.8 ± 0.7
205400 kPa | 344.7 ± 0.7
256400 kPa | 354.2 ± 0.7

[2]
Conditions | viscosity
325.6 K, 9800 kPa | 2.598 ± 0.07 mPa·s
325.6 K, 16400 kPa | 2.778 ± 0.075 mPa·s
325.6 K, 29600 kPa | 3.247 ± 0.087 mPa·s
325.6 K, 37200 kPa | 3.568 ± 0.096 mPa·s
325.6 K, 51000 kPa | 4.157 ± 0.11 mPa·s
325.6 K, 60500 kPa | 4.578 ± 0.13 mPa·s
325.6 K, 69000 kPa | 4.98 ± 0.14 mPa·s
325.6 K, 70800 kPa | 5.095 ± 0.14 mPa·s
428.9 K, 6800 kPa | 0.685 ± 0.023 mPa·s
428.9 K, 21900 kPa | 0.831 ± 0.027 mPa·s
428.9 K, 42100 kPa | 1.023 ± 0.033 mPa·s
428.9 K, 63400 kPa | 1.232 ± 0.041 mPa·s
428.9 K, 84300 kPa | 1.446 ± 0.047 mPa·s
428.9 K, 104900 kPa | 1.649 ± 0.053 mPa·s
428.9 K, 125500 kPa | 1.878 ± 0.059 mPa·s
428.9 K, 147800 kPa | 2.125 ± 0.067 mPa·s
428.9 K, 168000 kPa | 2.392 ± 0.076 mPa·s
428.9 K, 188600 kPa | 2.65 ± 0.084 mPa·s
428.9 K, 209600 kPa | 2.928 ± 0.092 mPa·s
428.9 K, 230000 kPa | 3.207 ± 0.1 mPa·s
428.9 K, 243100 kPa | 3.396 ± 0.11 mPa·s
533.9 K, 9200 kPa | 0.303 ± 0.01 mPa·s
533.9 K, 9500 kPa | 0.305 ± 0.01 mPa·s
533.9 K, 15200 kPa | 0.336 ± 0.011 mPa·s
533.9 K, 22500 kPa | 0.38 ± 0.012 mPa·s
533.9 K, 44600 kPa | 0.497 ± 0.016 mPa·s
533.9 K, 64000 kPa | 0.579 ± 0.019 mPa·s
533.9 K, 85700 kPa | 0.686 ± 0.022 mPa·s
533.9 K, 105900 kPa | 0.784 ± 0.025 mPa·s
533.9 K, 126600 kPa | 0.88 ± 0.028 mPa·s
533.9 K, 147600 kPa | 0.975 ± 0.031 mPa·s and 0.985 ± 0.032 mPa·s
533.9 K, 167700 kPa | 1.077 ± 0.035 mPa·s
533.9 K, 188600 kPa | 1.201 ± 0.039 mPa·s
533.9 K, 209100 kPa | 1.313 ± 0.042 mPa·s
533.9 K, 229300 kPa | 1.411 ± 0.045 mPa·s
533.9 K, 242900 kPa | 1.491 ± 0.048 mPa·s
